Data published in patent US5310726A, “Lipopeptide compounds” (Merck & Co., Inc., priority 1990, dated 1994).

Tests used:
[1] = tested on: Candida tropicalis; experiment: Microdilution broth assay, minimum fungicidal concentration; format: cell-based; details: Candida tropicalis MY 1012
Method: The usefulness of the compounds as antifungal agents particularly, for the treatment of mycotic infections may be illustrated with minimum fungicidal concentration (MFC) results with Compound IA in tests against Candida albicans, Candida tropicalis and Candida parapsilosis. The activity may be seen in a microdilution broth assay employing Yeast Nitrogen Base (Difco) with 10% dextrose (YNBD) as the medium. […] The compounds were then diluted to 256 μg/ml in YNBD. 0.15 ml of the suspension was dispensed to the top row of a 96-well plate (each well containing 0.15 ml of YNDB) resulting in a drug concentration of 128 μg/ml. Two-fold dilutions were then made from the top row to obtain final drug concentrations ranging from 128 to 0.06 μg/ml. The yeast cultures, maintained on Sabouraud dextrose agar were transferred to YM broth (Difco) and incubated overnight at 35° C. with shaking (250 rpm). After incubation, each culture was diluted in sterile water to yield a final concentration of 1-5×10^6 colony forming units (CFU)/ml. 96-well microplates were inoculated using a MIC-2000 (Dynatech) which delivers […] per well yielding a final inoculum per well of 1.5-7.5×10^3 cells. […] The minimum inhibitory concentrations (MICS) were recorded as the lowest concentrations of drug showing no visible growth. […] The inoculated trays were incubated 24 hours at 28° C. and then read. […]

[2] = Stability in aqueous media; format: physicochemical; details: physiological pH range
[3] = tested on: Candida albicans; experiment: Microdilution broth assay, minimum fungicidal concentration; format: cell-based
Excerpt: (§1) The usefulness of the compounds as antifungal agents particularly, for the treatment of mycotic infections may be illustrated with minimum fungicidal concentration (MFC) results with Compound IA in tests against Candida albicans, Candida tropicalis and Candida parapsilosis.
(§2) The activity may be seen in a microdilution broth assay employing Yeast Nitrogen Base (Difco) with 10% dextrose (YNBD) as the medium. In carrying out the assay, Compound Ia was solubilized in 10 percent dimethyl sulfoxide (DMSO) and diluted to 2560 μg/ml. The compounds were then diluted to 256 μg/ml in YNBD. 0.15 ml of the suspension was dispensed to the top row of a 96-well plate (each well containing 0.15 ml of YNDB) resulting in a drug concentration of 128 μg/ml. Two-fold dilutions were then made from the top row to obtain final drug concentrations ranging from 128 to 0.06 μg/ml.
(§3) The yeast cultures, maintained on Sabouraud dextrose agar were transferred to YM broth (Difco) and incubated overnight at 35° C. with shaking (250 rpm). After incubation, each culture was diluted in sterile water to yield a final concentration of 1-5×10^6 colony forming units (CFU)/ml.
(§4) 96-well microplates were inoculated using a MIC-2000 (Dynatech) which delivers […] per well yielding a final inoculum per well of 1.5-7.5×10^3 cells. The microplates were incubated at 35° C. for 24 hours. The minimum inhibitory concentrations (MICS) were recorded as the lowest concentrations of drug showing no visible growth.
(§5) After recording the MIC, the plates were shaken to resuspend the cells. Thereafter, […] samples from the wells in the 96-well microplate were transferred to a single well tray containing Sabouraud dextrose agar. The inoculated trays were incubated 24 hours at 28° C. and then read. The MFC is defined as the lowest concentration of drug showing no growth or less than 4 colonies per spot.

[4] = tested on: Candida parapsilosis; experiment: as above; format: cell-based
Excerpt: as §1, §2, §3, §4, §5

1-[4-hydroxy-N^2 -(10,12-dimethyl-1-oxo-tetradecyl)ornithine]-4-[3-hydroxy-homotyrosine]-5- [3-hydroxy-glutamine]echinocandin B [Compound Ia]
Minimum Fungicidal Concentration [1]: 1 µg/mL
stability in aqueous medium [2]: exhibit the stability in aqueous medium desired
Minimum Fungicidal Concentration ([3]; Candida albicans MY 1028): 0.5 µg/mL
Minimum Fungicidal Concentration ([3]; Candida albicans MY 1055): 1 µg/mL
Minimum Fungicidal Concentration ([3]; Candida albicans MY 1208): 2 µg/mL
Minimum Fungicidal Concentration ([3]; Candida albicans MY 1585): 0.25 µg/mL
Minimum Fungicidal Concentration ([3]; Candida albicans MY 1750): 0.25 µg/mL
Minimum Fungicidal Concentration ([3]; Candida albicans MY 1783): 0.5 µg/mL
Minimum Fungicidal Concentration ([4]; Candida parapsilosis MY 1008): 8 µg/mL
Minimum Fungicidal Concentration ([4]; Candida parapsilosis MY 1010): 4 µg/mL

1-[4-hydroxy-N^2 -(10,12-dimethyl-1-oxo-tetradecyl)ornithine]-5-[3-hydroxy-glutamine]echino candin B [Compound Ib]
stability in aqueous medium [2]: exhibit the stability in aqueous medium desired
